In patent US20200030349A1, “PHYSIOLOGICALLY ACTIVE PREPARATION COMPRISING N-ACETYL-GLUCOSAMINE FOR THE TREATMENT OF BACK PAIN” (Natural Products & Drugs GmbH, priority 2017, published 2020) one finds water solubility and stability in solution data, which are given here for one compound.

The nature of one data set: water solubility. The class given is physicochemical. The source says:
(§1) Advantageously according to the invention, the composition for use in a method for the prophylaxis and/or treatment of back pain and the composition comprising at least two components are in the form of an oral dosage form. An oral dosage form is easy to handle and is accepted by a user without problems. In addition, the user can easily take the composition themself. It is preferably a solid form of administration, in particular in the form of capsules, tablets, dragées, granules and powders. Addition of the composition to functional foods, such as a bar for healthy nutrition, is also possible. Alternatively or in addition, a liquid dosage form, in particular in the form of drops, stable solutions and/or juices, is also possible.

Another data set is described as follows: stability in solution. It counts as physicochemical. To be noted: over pH range.
From the text: as §1

For the compound `CC(=O)N[C@H]1C(O)O[C@H](CO)[C@@H](O)[C@@H]1O` (stereo partly drawn) [N-acetyl-glucosamine, N-acetyl-D-glucosamine], the water solubility result in the data set “water solubility” was “good water solubility”. Further, the stability in solution result in “stability in solution” is “stable in solution over a wide pH range”.
